Laboratory results as given in US12673972B2, “Lung-specific targeting-peptide (LTP), compositions, and uses thereof” (University of Pittsburgh—Of the Commonwealth System of …, priority 2019, dated 2026).
“Also recorded” adds a separate entry of the source. No end group written: not given here. Cy5.5 = Cy5.5 fluorescent label

Legend:
[1] = tested on: H9C2 cells; assay: FACS uptake of Cy5.5-labeled alanine-scan peptides in H9C2 cells; format: cell-based, rat; settings: 10 μM peptide, 30 minutes at 37° C., FACS gated on live cells
Procedure: An alanine scan of the cardiac targeting peptide (CTP, APWHLSSQYSRT, SEQ ID NO: 3) was performed, in which each amino acid was replaced sequentially with alanine, resulting in 11 different “alanine mutant” versions of CTP. Solid phase peptide synthesis of the alanine mutants of CTP fluorescently labeled with Cyanine 5.5 (Cy5.5) was conducted using standard fluorenylmethoxycarbonyl protecting group organic synthesis (FMOC) conditions on a Liberty CEM Microwave Peptide Synthesizer. Cleavage of the fully-protected CTP peptide fragment from the 2-chlorotrityl solid support was accomplished using 1% Trifluoroacetic acid (TFA)/methylene chloride (DCM), followed by elution of the peptide using TFA+scavengers, followed by isolation of the crude product by precipitation in Diethyl Ether (EtO2). Fluorescent dye labelling of the N-terminal amine was performed in solution using Cy5.5-NHS (Lumiprobe, Inc). The resulting crude cyclic CTP-Cy5.5 peptide was purified by preparative C-5 Reversed Phase High Performance Liquid Chromatography (RP-HPLC) on a Waters Delta Prep 4000 chromatography system, using standard Acetonitrile/0.1% TFA gradient conditions. Analytical C-5 RP-HPLC characterization on a Waters Alliance chromatography system followed by Matrix-Assisted Laser Desorption/Ionization Time-Of-Flight Mass Spectrometry (MALDI-TOF-MS) analysis on an Applied Biosystems Voyager workstation was used to confirm the expected mass and purity of the final product. For the purposes of nomenclature, the CTP mutants are identified by the original amino acid followed by its numbered position and A to indicate alanine at the substituted position, e.g., R11A indicates arginine at position 11 of CTP substituted with alanine (APWHLSSQYSAT, SEQ ID NO: 2). CTP was also synthesized as a 6-amino acid N-terminal peptide (CTP-A, APWHLS, SEQ ID NO: 4), and as a 6-amino acid C-terminal peptide (CTP-B, SQYSRT, SEQ ID NO: 5).
For in vitro testing, a rat cardiomyoblast cell line, H9C2 was incubated with each of the alanine-scan peptides, including parental peptide CTP and variants CTP-A and CTP-B; each condition was run in triplicate. For the incubation, peptides were received as lyophilized powders and made into 10 mM stock solutions in DMSO. The stock solution was diluted in culture medium to a final concentration of 10 μM for each peptide, and incubated for 30 minutes at 37° C. with H9C2 cells. Following the incubation period, cells were washed extensively with PBS, trypsinized and fluorescence activated cell sorting (FACS) was performed in biological triplicates. […] There was almost a 3-4 fold increase in median fluorescence intensities compared with CTP for S7A peptide and R11A peptide (FIG. 1).

[2] = tested on: CD1 mice; assay: In vivo biodistribution of fluorescently labeled peptides in mice (IVIS ex vivo organ imaging, confocal microscopy); settings: for cardiac uptake / uptake in lung epithelial tissue: 10 mg/kg intravenously, 15 minutes circulation, CD1 mice; for uptake in lung epithelial tissue: confocal and IVIS; for greater lung than liver uptake (lung-to-liver ratio of fluorescent intensity) / lung transduction at lower doses: S7A 5 mg/kg, R11A 5 and 1 mg/kg, 15 minutes, ex vivo IVIS; for lung transduction at lower doses: even at the lowest injected dose
Procedure: CTP-B, CTP-P2A, CTP-S7A, CTP-R11A and a random negative control peptide (RAN), were further tested in vivo in mice, in triplicate. Wild-type, 6-week old, male and female CD1 mice were weighed and anesthetized. Mice were injected intravenously with the various peptides, each at a dose of 10 mg/kg. Peptides circulated for 15 minutes, after which mice were euthanized and fixed with 3 ml of 10% formalin injected through the left ventricular apex. Multiple organs (heart, lungs, liver, kidney, spleen, brain, large intestines, small intestines, testes/ovaries, and eyeball) were harvested, placed in a 12-well plate, and immediately imaged using a Perkin-Elmer IVIS imaging system using the relevant excitation-emission laser/detector wavelengths. After the imaging was complete, organs were placed in 10% formalin at room temperature. Following overnight fixation in formalin, organs were transferred to 30% sucrose at 4° C. Following overnight incubation in sucrose, all organs were embedded and frozen in optical cutting medium, 10 μm thick sections were cut, mounted with DAPI, and cover-slipped. Slides were imaged using confocal fluorescent microscopy using the same parameters for imaging between mice, peptides and organs, to allow for comparison and quantification of fluorescence intensities in the relevant regions of interest.
Injections were repeated in a total of 9 CD1 mice with identical lung uptake; all images were acquired with the same confocal microscope parameters to allow for cross-animal comparison; however, at the same laser intensity, the lung sample was saturated. […] Wild-type mice were injected with Cy5.5 labeled R11A at a dose of 10 mg/kg, and euthanized mice after 15 minutes; multiple organs were then harvested for imaging.
Wild-type CD1 mice were then injected with lower doses of fluorescently labeled S7A peptide (5 mg/kg) or R11A peptide (5 and 1 mg/kg). The peptides were allowed to circulate for 15 minutes, mice were sacrificed, multiple organs were harvested, and ex vivo IVIS imaging was performed. Ex vivo imaging of organs harvested from mice without injected peptides was performed in order to subtract background auto-fluorescent signal from the test organs. IVIS imaging of multiple organs was conducted after administering decreasing doses of peptide from 5 to 1 mg/kg. […] Quantification of IVIS imaging for total fluorescent intensity for heart, lung, liver, kidney, spleen, and brain is shown in FIG. 4. Using the fluorescent intensity values, Lung-to-Liver ratios for both peptides were calculated at the tested doses.

[3] = tested on: human bronchial epithelial cells from patients with Cystic Fibrosis (CF); assay: Confocal uptake in human bronchial epithelial cells from patients with Cystic Fibrosis; format: cell-based; settings: for uptake by confocal microscopy: 10 μM, 0, 2, 10 or 30 minutes at 37° C./5% CO2, FIG. 6A; for quantification of fluorescence intensity (uptake): FIG. 6B
Procedure: Cells were grown on coverslips, incubated with 10 μM of S7A peptide, R11A peptide, or a random, negative control peptide, for 0, 2, 10, or 30 minutes at 37° C./5% CO2. Following incubation, cells were washed with prewarmed PBS, cross-stained with DAPI, fixed, and mounted on slides for confocal microscopy. […] In the time 0 and 2 minute timepoints, only the DAPI nuclear stain is visible, with cytoplasmic staining for the LTPs growing visible at 10 minutes and dominating the field of view at 30 minutes.

[4] = tested on: human bronchial epithelial cells from patients with CF; assay: Uptake at 4° C with fluorescently labeled transferrin (Tf-488) in human bronchial epithelial cells from patients with CF; format: cell-based; settings: for uptake relative to random peptide: 10 μM, 1 hour on ice at 4° C. then 37° C., times 0, 5 and 30 minutes; for energy dependence of internalization: occurred even at 4° C.
Procedure: To further characterize uptake of S7A peptide and R11A peptide in cells of interest, human bronchial epithelial cells from patients with CF were grown on cover-slips. Cells were starved at 37° C. for 1 hour in minimal media (MEM media+0.5% Bovine Serum Albumin (BS)+25 mM Hepes buffer at pH 7.4), washed with cold PBS, incubated on ice at 4° C. with fluorescently labeled transferrin (Tf-488) and 10 μM of test peptide (Random, S7A peptide, or R11A peptide) for 1 hour before being shifted to a 37° C. water-bath. Cover-slips were fixed at times 0, 5 and 30 minutes, with random peptide samples fixed only at 0 and 30 minutes.

[5] = tested on: H9C2 cells; assay: Confocal microscopy of H9C2 cells transduced with linear or cyclic CTP; format: cell-based, rat; settings: for Mean (fluorescence) / Subtraction (mean minus background fluorescence): transduced H9C2 cells, confocal quantification
Source text: The cardiac targeting peptide (CTP, SEQ ID NO: 3) was cyclized by establishing a chemical bond between the amino and carboxyl termini (between the alpha-amino group of N-terminal Lysine and the C-terminus of the peptide sequence), and subsequently labelled with a Cy5.5 fluorescent label at the epsilon amino group of the N-terminal lysine.
The cyclic form of CTP was then compared to the linear form of CTP using confocal microscopy of transduced H9C2 cells, using the protocol as described in Example 1 above. […] Quantification of the fluorescence intensity, as shown in FIG. 10B and Table 2, confirmed the enhanced fluorescent activity.

Substance | uptake of the fluorescently labeled peptide into H9C2 cells as compared to full-length, parental CTP [1] | cardiac uptake [2] | uptake in lung epithelial tissue [2] | greater lung than liver uptake (lung-to-liver ratio of fluorescent intensity) [2] | lung transduction at lower doses [2] | uptake by confocal microscopy [3] | quantification of fluorescence intensity (uptake) ([3]; 10 μM) | uptake and fluorescence intensity compared between test peptides ([3]; 10 μM, confocal microscopy, FIG. 6A) | uptake relative to random peptide [4] | energy dependence of internalization [4] | Mean (fluorescence) [5] | Subtraction (mean minus background fluorescence) [5] | uptake of cyclic format relative to linear format ([5]; confocal imaging, FIG. 10A)
AAWHLSSQYSRT [CTP-P2A] | statistically significantly higher uptake | results similar to what was predicted from in vitro H9C2 transduction | – | – | – | – | – | – | – | – | – | – | –
APWHLSAQYSRT (also: Cy5.5 label, place not given here) [S7A, Lung-specific targeting peptide, alanine mutant of CTP; tested Cy5.5-labeled] | statistically significantly higher uptake | did not show significant cardiac uptake; also recorded: without significant cardiac uptake | robust uptake | approximately 2.5 fold | Robust lung transduction | robust uptake | significantly high uptake | higher uptake and fluorescence intensity even than R11A peptide | robust uptake | not energy-dependent | – | – | –
APWHLSSQYSAT (also: Cy5.5 label, place not given here) [R11A, Lung-specific targeting peptide, alanine mutant of CTP; tested Cy5.5-labeled] | statistically significantly higher uptake | did not show significant cardiac uptake; also recorded: without significant cardiac uptake | Robust lung uptake | 8-9 fold | Robust lung transduction | robust uptake | significantly high uptake | – | robust uptake | not energy-dependent | – | – | –
APWHLSSQYSRT [Linear CTP, cardiac targeting peptide described in WO2019226785A1, parental peptide, reference compound] | – | – | – | – | – | – | – | – | – | – | 362.478 | 134.777 | –
KAPWHLSSQYSRT (cyclo(K(Cy5.5)APWHLSSQYSRT)) [Cyclic CTP, CTP cyclized via N-terminal lysine alpha-amino group to C-terminus, Cy5.5 at lysine epsilon amino group] | – | – | – | – | – | – | – | – | – | – | 521.590 | 371.123 | enhanced uptake relative to the linear format
SQYSRT [CTP-B, 6-amino acid C-terminal peptide of CTP] | statistically significantly higher uptake | results similar to what was predicted from in vitro H9C2 transduction | – | – | – | – | – | – | – | – | – | – | –
